In the NIST ThermoML archive (doi:10.1021/je800110r):
± gives the expanded uncertainty stated by the source.

Conditions: 333.15 K, Liquid, Vibrating tube method

CCCCCCCCCC [decane]
Conditions	mass density [kg/m3]
19251 kPa	716.4 ± 2
19274 kPa	716.4 ± 2
19314 kPa	716.5 ± 2
19349 kPa	716.6 ± 2
19381 kPa	716.6 ± 2
19417 kPa	716.4 ± 2
19450 kPa	716.6 ± 2
19479 kPa	716.6 ± 2
19511 kPa	716.6 ± 2
19540 kPa	716.7 ± 2
19568 kPa	716.7 ± 2
19592 kPa	716.6 ± 2
19616 kPa	716.7 ± 2
19651 kPa	716.8 ± 2
19679 kPa	716.8 ± 2
19711 kPa	716.7 ± 2
19731 kPa	716.7 ± 2
19756 kPa	716.9 ± 2
19796 kPa	716.8 ± 2
19819 kPa	716.8 ± 2
19856 kPa	716.9 ± 2
19885 kPa	717 ± 2
19910 kPa	716.9 ± 2
19934 kPa	717 ± 2
19963 kPa	717 ± 2
19996 kPa	716.9 ± 2
20029 kPa	717.1 ± 2
20054 kPa	717.2 ± 2
20083 kPa	717 ± 2
20116 kPa	717 ± 2
20150 kPa	717.1 ± 2
20188 kPa	717.1 ± 2
20228 kPa	717.3 ± 2
20254 kPa	717.2 ± 2
20284 kPa	717.3 ± 2
20318 kPa	717.2 ± 2
20356 kPa	717.3 ± 2
20390 kPa	717.3 ± 2
20425 kPa	717.4 ± 2
20464 kPa	717.3 ± 2
20494 kPa	717.3 ± 2
20525 kPa	717.4 ± 2
20552 kPa	717.5 ± 2
20579 kPa	717.5 ± 2
20606 kPa	717.4 ± 2
20628 kPa	717.4 ± 2
20654 kPa	717.5 ± 2
20695 kPa	717.6 ± 2
20730 kPa	717.5 ± 2
20769 kPa	717.6 ± 2
20801 kPa	717.6 ± 2
20841 kPa	717.6 ± 2
20873 kPa	717.7 ± 2
20900 kPa	717.7 ± 2
20931 kPa	717.7 ± 2
20959 kPa	717.8 ± 2
20996 kPa	717.7 ± 2
21022 kPa	717.8 ± 2
21055 kPa	717.8 ± 2
21176 kPa	717.9 ± 2
21204 kPa	717.9 ± 2
21251 kPa	717.9 ± 2
21280 kPa	718 ± 2
21313 kPa	718.1 ± 2
21352 kPa	718.1 ± 2
21376 kPa	718.1 ± 2
21409 kPa	718.2 ± 2
21433 kPa	718.1 ± 2
21462 kPa	718.2 ± 2
21500 kPa	718.2 ± 2
21529 kPa	718.2 ± 2
21573 kPa	718.3 ± 2
21612 kPa	718.4 ± 2
21655 kPa	718.3 ± 2
21690 kPa	718.4 ± 2
21725 kPa	718.4 ± 2
21755 kPa	718.4 ± 2
21861 kPa	718.6 ± 2
21901 kPa	718.5 ± 2
21931 kPa	718.6 ± 2
21967 kPa	718.6 ± 2
22007 kPa	718.5 ± 2
22038 kPa	718.6 ± 2
22074 kPa	718.7 ± 2
22115 kPa	718.7 ± 2
22162 kPa	718.7 ± 2
22193 kPa	718.8 ± 2
22224 kPa	718.8 ± 2
22261 kPa	718.8 ± 2
22293 kPa	718.8 ± 2
22345 kPa	718.9 ± 2
22381 kPa	718.9 ± 2
22419 kPa	719 ± 2
22471 kPa	719 ± 2
22498 kPa	718.9 ± 2
22530 kPa	719 ± 2
22561 kPa	719 ± 2
22611 kPa	719 ± 2.1
22649 kPa	719.1 ± 2.1
22677 kPa	719.1 ± 2.1
22726 kPa	719.1 ± 2.1
22771 kPa	719.2 ± 2.1
22816 kPa	719.2 ± 2.1
22849 kPa	719.4 ± 2.1
22899 kPa	719.3 ± 2.1
22927 kPa	719.4 ± 2.1
22959 kPa	719.3 ± 2.1
23000 kPa	719.3 ± 2.1
23038 kPa	719.5 ± 2.1
23068 kPa	719.3 ± 2.1
23096 kPa	719.5 ± 2.1
23134 kPa	719.6 ± 2.1
23172 kPa	719.5 ± 2.1
23219 kPa	719.5 ± 2.1
23252 kPa	719.6 ± 2.1
23281 kPa	719.5 ± 2.1
23314 kPa	719.6 ± 2.1
23339 kPa	719.7 ± 2.1
23382 kPa	719.7 ± 2.1
23416 kPa	719.8 ± 2.1
23452 kPa	719.7 ± 2.1
23491 kPa	719.8 ± 2.1
23539 kPa	719.9 ± 2.1
23579 kPa	719.7 ± 2.1
23623 kPa	719.9 ± 2.1
23657 kPa	719.9 ± 2.1
23697 kPa	719.9 ± 2.1
23726 kPa	719.9 ± 2.1
23766 kPa	720 ± 2.1
23797 kPa	720 ± 2.1
23831 kPa	719.9 ± 2.1
23868 kPa	720.1 ± 2.1
23898 kPa	720.1 ± 2.1
23943 kPa	720.1 ± 2.1
23979 kPa	720 ± 2.1
24014 kPa	720.1 ± 2.1
24049 kPa	720.1 ± 2.1
24085 kPa	720.1 ± 2.1
24131 kPa	720.3 ± 2.1
24177 kPa	720.3 ± 2.1
24224 kPa	720.2 ± 2.1
24260 kPa	720.2 ± 2.1
24308 kPa	720.3 ± 2.1
24355 kPa	720.4 ± 2.1
24402 kPa	720.5 ± 2.1
24433 kPa	720.5 ± 2.1
24481 kPa	720.5 ± 2.1
24513 kPa	720.5 ± 2.1
24550 kPa	720.5 ± 2.1
24586 kPa	720.6 ± 2.1
24618 kPa	720.6 ± 2.1
24656 kPa	720.6 ± 2.1
24700 kPa	720.6 ± 2.1
24738 kPa	720.7 ± 2.1
24783 kPa	720.8 ± 2.1
24815 kPa	720.9 ± 2.1
24859 kPa	720.8 ± 2.1
24897 kPa	720.9 ± 2.1
24935 kPa	720.9 ± 2.1
24974 kPa	720.7 ± 2.1
25013 kPa	721 ± 2.1
25058 kPa	720.9 ± 2.1
25114 kPa	721.1 ± 2.1
25142 kPa	721 ± 2.1
25177 kPa	721 ± 2.1
25213 kPa	721.1 ± 2.1
25259 kPa	721.1 ± 2.1
25303 kPa	721.2 ± 2.1
26374 kPa	721.9 ± 2.1
26417 kPa	722 ± 2.1
26462 kPa	722.1 ± 2.1
26501 kPa	722 ± 2.1
27273 kPa	722.7 ± 2.1
27328 kPa	722.6 ± 2.1
27371 kPa	722.6 ± 2.1
27419 kPa	722.6 ± 2.1
29838 kPa	724.5 ± 2.1
29868 kPa	724.5 ± 2.1
29913 kPa	724.5 ± 2.1
29948 kPa	724.6 ± 2.1
29988 kPa	724.7 ± 2.1
30720 kPa	725.2 ± 2.1
30760 kPa	725.2 ± 2.1
30787 kPa	725.3 ± 2.1
30831 kPa	725.2 ± 2.1
30857 kPa	725.2 ± 2.1
30898 kPa	725.3 ± 2.1
30924 kPa	725.4 ± 2.1
30960 kPa	725.2 ± 2.1
31000 kPa	725.3 ± 2.1
31027 kPa	725.4 ± 2.1
31059 kPa	725.4 ± 2.1
31090 kPa	725.4 ± 2.1
31122 kPa	725.4 ± 2.1
31148 kPa	725.4 ± 2.1
31190 kPa	725.5 ± 2.1
31218 kPa	725.5 ± 2.1
31259 kPa	725.6 ± 2.1
31295 kPa	725.5 ± 2.1
31332 kPa	725.6 ± 2.1
31592 kPa	725.8 ± 2.1
31630 kPa	725.8 ± 2.1
31667 kPa	725.7 ± 2.1
31731 kPa	725.9 ± 2.1
31793 kPa	725.9 ± 2.1
31821 kPa	725.9 ± 2.1
31859 kPa	726 ± 2.1
31893 kPa	725.9 ± 2.1
31921 kPa	726.1 ± 2.1
31956 kPa	726 ± 2.1
31994 kPa	726 ± 2.1
32038 kPa	726.1 ± 2.1
32086 kPa	726.1 ± 2.1
32125 kPa	726 ± 2.1
32150 kPa	726.2 ± 2.1
32479 kPa	726.4 ± 2.1
32505 kPa	726.4 ± 2.1
32549 kPa	726.4 ± 2.1
32589 kPa	726.4 ± 2.1
32625 kPa	726.4 ± 2.1
32670 kPa	726.7 ± 2.1
32696 kPa	726.6 ± 2.1
32737 kPa	726.6 ± 2.1
32780 kPa	726.6 ± 2.1
32812 kPa	726.5 ± 2.1
32850 kPa	726.6 ± 2.1
32883 kPa	726.6 ± 2.1
32910 kPa	726.7 ± 2.1
32948 kPa	726.7 ± 2.1
32985 kPa	726.7 ± 2.1
33027 kPa	726.8 ± 2.1
33070 kPa	726.8 ± 2.1
33098 kPa	726.9 ± 2.1
33136 kPa	726.8 ± 2.1
33179 kPa	726.8 ± 2.1
33213 kPa	727 ± 2.1
33251 kPa	726.8 ± 2.1
33289 kPa	726.9 ± 2.1
33328 kPa	726.9 ± 2.1
33366 kPa	727 ± 2.1
33404 kPa	727.1 ± 2.1
33434 kPa	727 ± 2.1
33473 kPa	727 ± 2.1
33508 kPa	727 ± 2.1
33553 kPa	727.1 ± 2.1
33593 kPa	727.3 ± 2.1
33633 kPa	727.1 ± 2.1
33660 kPa	727.2 ± 2.1
33693 kPa	727.3 ± 2.1
33721 kPa	727.3 ± 2.1
33748 kPa	727.3 ± 2.1
33772 kPa	727.2 ± 2.1
33796 kPa	727.3 ± 2.1
33816 kPa	727.4 ± 2.1
33851 kPa	727.3 ± 2.1
33876 kPa	727.5 ± 2.1
33907 kPa	727.3 ± 2.1
33943 kPa	727.5 ± 2.1
33976 kPa	727.5 ± 2.1
34008 kPa	727.4 ± 2.1
34037 kPa	727.5 ± 2.1
34062 kPa	727.6 ± 2.1
34091 kPa	727.5 ± 2.1
34116 kPa	727.6 ± 2.1
34150 kPa	727.6 ± 2.1
34176 kPa	727.6 ± 2.1
34219 kPa	727.7 ± 2.1
34246 kPa	727.7 ± 2.1
34288 kPa	727.7 ± 2.1
34326 kPa	727.7 ± 2.1
34351 kPa	727.7 ± 2.1
34386 kPa	727.8 ± 2.1
34412 kPa	727.8 ± 2.1
34437 kPa	727.7 ± 2.1
